Assay results: patent publication US10933056B2, “3-(1H-pyrazol-4-yl)pyridine allosteric modulators of the M4 muscarinic acetylcholine receptor” (Merck Sharp & Dohme Corp., priority 2015, dated 2021)

The compounds below were run against T1, human M4 muscarinic acetylcholine receptor (Homo sapiens, UniProt P08173) (assay: human FLIPR-based M4 PAM assay (calcium mobilization in CHO-K1 cells with human M4 receptor and Gαqi5)). Conditions: inflection point of dose response curve, acetylcholine at 20% of maximum response, FLIPR Tetra, read-out: M4 PAM IP.
T1 construct: expressed in transfected cells; host or cells: CHO-K1
T1 sequence (P08173 1-479): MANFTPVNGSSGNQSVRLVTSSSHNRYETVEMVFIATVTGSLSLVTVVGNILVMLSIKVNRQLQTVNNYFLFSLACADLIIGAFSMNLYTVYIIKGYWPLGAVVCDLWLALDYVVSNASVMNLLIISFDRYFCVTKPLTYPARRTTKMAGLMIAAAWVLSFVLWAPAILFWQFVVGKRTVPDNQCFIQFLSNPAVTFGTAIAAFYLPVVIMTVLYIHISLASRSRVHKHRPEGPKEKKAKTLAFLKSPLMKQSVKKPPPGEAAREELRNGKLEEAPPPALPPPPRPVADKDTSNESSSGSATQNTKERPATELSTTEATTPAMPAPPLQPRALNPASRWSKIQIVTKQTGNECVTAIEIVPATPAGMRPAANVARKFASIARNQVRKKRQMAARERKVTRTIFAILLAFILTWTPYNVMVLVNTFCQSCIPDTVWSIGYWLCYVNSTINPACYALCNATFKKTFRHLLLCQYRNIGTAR
Type: cell-based
Summary of the method: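 CHO-K1 cells stably expressing human M4 and chimeric Gαqi5 were dye-loaded ~1 h at 37° C. Test compound was added with fluorescence recorded 4 min, then acetylcholine at EC20 (sometimes a further EC70 addition) with reading 3.5 min. Value is the inflection point of a 4-parameter logistic fit.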

| EC50 | SMILES |
| --- | --- |
| 46 nM | CN1Cc2ncc(-c3nc(C(F)(F)F)ccc3-c3cnn(CC4(C)CCCC4)c3)cc2C1=O [Example 81, 6-methyl-3-(3-(1-((1-methylcyclopentyl)methyl)-1H-pyrazol-4-yl)-6-(trifluoromethyl)pyridin-2-yl)-6,7-dihydro-5H-pyrrolo[3,4-b]pyridin-5-one] |
| 310 nM | CC1(Cn2cc(-c3ccc(C#N)nc3-c3ccc4c(c3)C(=O)N(C3COC3)C4)cn2)CCCC1 [Example 82, 5-(1-((1-methylcyclopentyl)methyl)-1H-pyrazol-4-yl)-6-(2-(oxetan-3-yl)-3-oxoisoindolin-5-yl)picolinonitrile] |
| 100 nM | O=C1c2cc(-c3ncccc3-c3cnn(CC4CCCC4)c3)ccc2CN1c1ccccc1 [Example 83, 6-(3-(1-(cyclopentylmethyl)-1H-pyrazol-4-yl)pyridin-2-yl)-2-phenylisoindolin-1-one] |
| 47 nM | O=C1c2cc(-c3ncccc3-c3cnn(CC4CCCC4)c3)ccc2CN1CC1CC1 [Example 84, 6-(3-(1-(Cyclopentylmethyl)-1H-pyrazol-4-yl)pyridin-2-yl)-2-(cyclopropylmethyl)isoindolin-1-one] |
| 60 nM | O=C1c2cc(-c3ncccc3-c3cnn(CC4CCCC4)c3)ccc2CN1CC1CCCO1 (stereo not drawn) [Example 85, 6-(3-(1-(cyclopentylmethyl)-1H-pyrazol-4-yl)pyridin-2-yl)-2-((tetrahydrofuran-2-yl)methyl)isoindolin-1-one] |
| 62 nM | O=C1c2cc(-c3ncccc3-c3cnn(CC4CCCC4)c3)ccc2CN1CC1CCC1 [Example 86, 2-(cyclobutylmethyl)-6-(3-(1-(cyclopentylmethyl)-1H-pyrazol-4-yl)pyridin-2-yl)isoindolin-1-one] |
| 319 nM | N#CC1(N2Cc3ccc(-c4ncccc4-c4cnn(CC5CCCC5)c4)cc3C2=O)CC1 [Example 87, 1-(6-(3-(1-(cyclopentylmethyl)-1H-pyrazol-4-yl)pyridin-2-yl)-1-oxoisoindolin-2-yl)cyclopropane-1-carbonitrile] |
| 240 nM | O=C1c2cc(-c3ncccc3-c3cnn(CC4CCCC4)c3)ccc2CN1C1COC1 [Example 88, 6-(3-(1-(cyclopentylmethyl)-1H-pyrazol-4-yl)pyridin-2-yl)-2-(oxetan-3-yl)isoindolin-1-one] |
| 32 nM | O=C1c2cc(-c3ncccc3-c3cnn(CC4CCCC4)c3)ccc2CN1C1CCC1 [Example 89, 2-cyclobutyl-6-(3-(1-(cyclopentylmethyl)-1H-pyrazol-4-yl)pyridin-2-yl)isoindolin-1-one] |
| 359 nM | CNC(=O)C1(N2Cc3ccc(-c4ncccc4-c4cnn(CC5CCCC5)c4)cc3C2=O)CC1 [Example 90, 1-(6-(3-(1-(cyclopentylmethyl)-1H-pyrazol-4-yl)pyridin-2-yl)-1-oxoisoindolin-2-yl)-N-methylcyclopropane-1-carboxamide] |
| 49 nM | NS(=O)(=O)c1ccc(CCN2Cc3ccc(-c4ncccc4-c4cnn(CC5CCCC5)c4)cc3C2=O)cc1 [Example 91, 4-(2-(6-(3-(1-(cyclopentylmethyl)-1H-pyrazol-4-yl)pyridin-2-yl)-1-oxoisoindolin-2-yl)ethyl)benzenesulfonamide] |

The next lines start with the compound.

| SMILES | EC50 |
| --- | --- |
| CN1Cc2ncc(-c3nc4c(cc3-c3cnn(CC5(C)CCCC5)c3)CCC4)cc2C1=O [Example 61, 6-methyl-3-(3-(1-((1-methylcyclopentyl)methyl)-1H-pyrazol-4-yl)-6,7-dihydro-5H-cyclopenta[b]pyridin-2-yl)-6,7-dihydro-5H-pyrrolo[3,4-b]pyridin-5-one] | 59 nM |
| Cc1cc(N)c(-c2cnn(CC3(C)CCCC3)c2)c(-c2ccc3c(c2)C(=O)N(C)C3)n1 [Example 62, 6-(4-amino-6-methyl-3-(1-((1-methylcyclopentyl)methyl)-1H-pyrazol-4-yl)pyridin-2-yl)-2-methylisoindolin-1-one] | 293 nM |
| CN1Cc2ccc(-c3nc(Cl)cc(N)c3-c3cnn(CC4(C)CCCC4)c3)cc2C1=O [Example 63, 6-(4-amino-6-chloro-3-(1-((1-methylcyclopentyl)methyl)-1H-pyrazol-4-yl)pyridin-2-yl)-2-methylisoindolin-1-one] | 489 nM |
| CC1(Cn2cc(-c3ccc(C#N)nc3-c3ccc4c(c3)C(=O)NC4(C)C)cn2)CCCC1 [Example 64, 6-(1,1-dimethyl-3-oxoisoindolin-5-yl)-5-(1-((1-methylcyclopentyl)methyl)-1H-pyrazol-4-yl)picolinonitrile] | 119 nM |
| Cc1ccc(-c2cnn(CC3(C)CCCC3)c2)c(-c2ccc3c(c2)C(=O)N(CC2CC2)C3)n1 [Example 65, 2-(cyclopropylmethyl)-6-(6-methyl-3-(1-((1-methylcyclopentyl)methyl)-1H-pyrazol-4-yl)pyridin-2-yl)isoindolin-1-one] | 136 nM |
| CC1(Cn2cc(-c3cc4c(nc3-c3cnc5c(c3)C(=O)N(CCF)C5)CCC4)cn2)CCCC1 [Example 66, 6-(2-fluoroethyl)-3-(3-(1-((1-methylcyclopentyl)methyl)-1H-pyrazol-4-yl)-6,7-dihydro-5H-cyclopenta[b]pyridin-2-yl)-6,7-dihydro-5H-pyrrolo[3,4-b]pyridin-5-one] | 39 nM |
| CN1Cc2ccc(-c3nc(CF)ccc3-c3cnn(CC4(C)CCCC4)c3F)cc2C1=O [Example 68, 6-(3-(5-fluoro-1-((1-methylcyclopentyl)methyl)-1H-pyrazol-4-yl)-6-(fluoromethyl)pyridin-2-yl)-2-methylisoindolin-1-one] | 23 nM |
| CC1(Cn2cc(-c3cc4c(nc3-c3cnc5c(c3)C(=O)N(CCC#N)C5)CCC4)cn2)CCCC1 [Example 69, 3-(3-(3-(1-((1-methylcyclopentyl)methyl)-1H-pyrazol-4-yl)-6,7-dihydro-5H-cyclopenta[b]pyridin-2-yl)-5-oxo-5,7-dihydro-6H-pyrrolo[3,4-b]pyridin-6-yl)propanenitrile] | 34 nM |
| COCCN1Cc2ncc(-c3nc4c(cc3-c3cnn(CC5(C)CCCC5)c3)CCC4)cc2C1=O [Example 70, 6-(2-methoxyethyl)-3-(3-(1-((1-methylcyclopentyl)methyl)-1H-pyrazol-4-yl)-6,7-dihydro-5H-cyclopenta[b]pyridin-2-yl)-6,7-dihydro-5H-pyrrolo[3,4-b]pyridin-5-one] | 47 nM |
| CN1C(=O)c2cc(-c3nc4c(cc3-c3cnn(CC5(C)CCCC5)c3)CCC4)cnc2C1(C)C [Example 71, 6,7,7-trimethyl-3-(3-(1-((1-methylcyclopentyl)methyl)-1H-pyrazol-4-yl)-6,7-dihydro-5H-cyclopenta[b]pyridin-2-yl)-6,7-dihydro-5H-pyrrolo[3,4-b]pyridin-5-one] | 35 nM |
| CN1C(=O)c2cc(-c3nc(C#N)ccc3-c3cnn(CC4(C)CCCC4)c3)ccc2C1(C)C [Example 72] | 41 nM |
| COCCN1Cc2ccc(-c3nc4c(cc3-c3cnn(CC5(C)CCCC5)c3)CCC4)cc2C1=O [Example 73, 2-(2-methoxyethyl)-6-(3-(1-((1-methylcyclopentyl)methyl)-1H-pyrazol-4-yl)-6,7-dihydro-5H-cyclopenta[b]pyridin-2-yl)isoindolin-1-one] | 52 nM |
| CN1Cc2ncc(-c3nc4c(cc3-c3cnn(CC5(C)CCCC5)c3F)CCC4)cc2C1=O [Example 74, 3-(3-(5-fluoro-1-((1-methylcyclopentyl)methyl)-1H-pyrazol-4-yl)-6,7-dihydro-5H-cyclopenta[b]pyridin-2-yl)-6-methyl-6,7-dihydro-5H-pyrrolo[3,4-b]pyridin-5-one] | 24 nM |
| Cc1cc(-c2cnn(CC3(C)CCCC3)c2F)c(-c2ccc3c(c2)C(=O)N(C)C3)nc1Cl [Example 75, 6-(6-chloro-3-(5-fluoro-1-((1-methylcyclopentyl)methyl)-1H-pyrazol-4-yl)-5-methylpyridin-2-yl)-2-methylisoindolin-1-one] | 80 nM |
| Cc1ccc(-c2cnn(CC3CCCC3)c2F)c(-c2ccc3c(c2)C(=O)N(C)C3)n1 [Example 76, 6-(3-(1-(cyclopentylmethyl)-5-fluoro-1H-pyrazol-4-yl)-6-methylpyridin-2-yl)-2-methylisoindolin-1-one] | 9 nM |
| Cc1cc(-c2cnn(CC3(C)CCCC3)c2)c(-c2ccc3c(c2)C(=O)N(C)C3)nc1CO [Example 77, 6-(6-(hydroxymethyl)-5-methyl-3-(1-((1-methylcyclopentyl)methyl)-1H-pyrazol-4-yl)pyridin-2-yl)-2-methylisoindolin-1-one] | 85 nM |
| CN1Cc2ccc(-c3nc(C#N)c(Cl)cc3-c3cnn(CC4(C)CCCC4)c3)cc2C1=O [Example 78, 3-chloro-6-(2-methyl-3-oxoisoindolin-5-yl)-5-(1-((1-methylcyclopentyl)methyl)-1H-pyrazol-4-yl)picolinonitrile] | 32 nM |
| CN1Cc2ccc(-c3nc(C#N)ccc3-c3cnn(CC4(C)CCCC4)c3Cl)cc2C1=O [Example 79, 5-(5-chloro-1-((1-methylcyclopentyl)methyl)-1H-pyrazol-4-yl)-6-(2-methyl-3-oxoisoindolin-5-yl)picolinonitrile] | 108 nM |
| CN1Cc2ncc(-c3nc(C(F)F)ccc3-c3cnn(CC4(C)CCCC4)c3)cc2C1=O [Example 80, 3-(6-(difluoromethyl)-3-(1-((1-methylcyclopentyl)methyl)-1H-pyrazol-4-yl)pyridin-2-yl)-6-methyl-6,7-dihydro-5H-pyrrolo[3,4-b]pyridin-5-one] | 26 nM |
